Source: ChEMBL document CHEMBL1126236, “Synthesis and muscarinic receptor activity of ester derivatives of 2-substituted 2-azabicyclo[2.2.1]heptan-5-ol and -6-ol” (J Med Chem, 1992)

What was measured:
[1] = target: T1, Muscarinic acetylcholine receptor M3 (Rattus norvegicus, UniProt P08483); assay: Inhibition of [3H]QNB binding to Muscarinic acetylcholine receptor M3 transfected with CHO cell; type: cell-based
[2] = target: Muscarinic acetylcholine receptor; assay: Inhibition of [3H]QNB binding to muscarinic receptor of rat heart membrane preparation.
[3] = target: Muscarinic acetylcholine receptor; assay: Inhibition of [3H]- Oxo-M binding to muscarinic receptor of rat brain membrane preparations
[4] = target: Muscarinic acetylcholine receptor; assay: Inhibition of [3H]QNB binding to muscarinic receptor of rat brain membrane preparation.
[5] = target: T2, Muscarinic acetylcholine receptor M1 (Rattus norvegicus, UniProt P08482); assay: Inhibition of [3H]QNB binding to Muscarinic acetylcholine receptor M1 transfected with CHO cell; type: cell-based
T2 sequence (P08482 whole entry): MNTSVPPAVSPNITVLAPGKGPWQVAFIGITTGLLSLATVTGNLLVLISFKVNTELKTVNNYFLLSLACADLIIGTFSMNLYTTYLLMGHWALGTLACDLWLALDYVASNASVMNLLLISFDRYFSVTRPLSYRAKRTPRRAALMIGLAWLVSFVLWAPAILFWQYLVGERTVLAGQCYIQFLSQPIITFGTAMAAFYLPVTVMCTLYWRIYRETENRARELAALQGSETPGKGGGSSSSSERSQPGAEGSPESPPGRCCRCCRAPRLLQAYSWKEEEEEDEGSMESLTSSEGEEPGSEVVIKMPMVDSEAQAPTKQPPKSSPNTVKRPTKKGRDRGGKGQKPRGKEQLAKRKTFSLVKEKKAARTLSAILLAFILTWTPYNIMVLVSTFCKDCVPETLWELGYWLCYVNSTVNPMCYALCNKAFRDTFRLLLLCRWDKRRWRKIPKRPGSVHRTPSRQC

[6] = target: T1, Muscarinic acetylcholine receptor M3; assay: Inhibition of [3H]QNB binding to m3 receptor transfected with CHO cell; type: cell-based

T1 sequence (P08483 whole entry): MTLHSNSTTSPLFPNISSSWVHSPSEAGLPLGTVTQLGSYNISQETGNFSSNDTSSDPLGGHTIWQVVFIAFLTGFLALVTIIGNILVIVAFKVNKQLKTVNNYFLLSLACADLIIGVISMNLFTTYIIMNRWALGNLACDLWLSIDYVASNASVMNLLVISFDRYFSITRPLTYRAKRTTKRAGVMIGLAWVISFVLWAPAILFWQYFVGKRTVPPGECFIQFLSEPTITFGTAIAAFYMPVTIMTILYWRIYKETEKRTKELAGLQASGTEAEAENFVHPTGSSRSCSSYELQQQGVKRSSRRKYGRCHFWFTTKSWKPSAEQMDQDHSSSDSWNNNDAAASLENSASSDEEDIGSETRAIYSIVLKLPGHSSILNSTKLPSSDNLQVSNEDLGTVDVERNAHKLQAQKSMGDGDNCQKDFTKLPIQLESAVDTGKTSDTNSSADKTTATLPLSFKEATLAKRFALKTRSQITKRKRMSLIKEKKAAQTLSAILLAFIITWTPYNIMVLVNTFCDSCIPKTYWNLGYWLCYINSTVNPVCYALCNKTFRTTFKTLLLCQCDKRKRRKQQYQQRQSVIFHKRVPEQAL

SMILES	Ki [1] [µM]	Ki [2] [µM]	Ki [3] [µM]	Ki [4] [µM]	Ki [5] [µM]	Ki [6] [µM]
CC(=O)OC1CC2CC1CN2Cc1ccccc1 (stereo unspecified)	26.9	10.3	1.56	14.8	18.9	
CN1CC2CC1C[C@@H]2OC(=O)C(C)(c1ccccc1)c1ccccc1 (stereo partly specified)	0.000533	0.00407			0.000876	
CC(=O)O[C@H]1CC2CC1N(Cc1ccccc1)C2 (stereo partly specified)		15.1	7.21	6.63	7.01	18.8
CC(=O)OC1CC2CC1N(C)C2 (stereo unspecified)	28	24.9	5.37	17.5	21.6	
CC(=O)O[C@H]1CC2CC1CN2C (stereo partly specified)	12	10.1	0.23	9.84	17.5	
CN1CC2CC1C[C@H]2OC(=O)C(C)(c1ccccc1)c1ccccc1 (stereo partly specified)	0.000522	0.00118			0.000423	
CC(=O)O[C@@H]1CC2CC1N(Cc1ccccc1)C2 (stereo partly specified)	47.6	15.3	2.57	20	2.26	
CC(=O)O[C@@H]1CC2CC1CN2C (stereo partly specified)	27.7	17.4	1.43	11.5	21.9	
